Among the data in PubChem BioAssay AID1259407 (Chemical Carcinogenesis Research Information System (CCRIS), 2018) are mutagenic call values, retold here.

The structures appear in SMILES notation. Active and inactive are the calls of the source. How the calls were made is not given here.

The subject of the data set is CCRIS mutagenicity, Ames/micronucleus/aberration tests. Put plainly: CCRIS mutagenicity studies.
[1] abbreviates: Test System: AMES SALMONELLA TYPHIMURIUM, Strain/Indicator: TA98, Metabolic Activation: NONE, Method: STANDARD PLATE.
Setting [2] is: Test System: AMES SALMONELLA TYPHIMURIUM, Strain/Indicator: TA1535, Metabolic Activation: NONE, Method: STANDARD PLATE.

For the compound `CC(C)NCC1CCc2cc(CO)c([N+](=O)[O-])cc2N1` (centres undefined), the mutagenic call reads like this: under setting [1], “active; positive”; (Test System: AMES SALMONELLA TYPHIMURIUM, Strain/Indicator: TA98, Metabolic Activation: RAT, LIVER, S-9, AROCLOR 1254 OR PHENOBARBITOL, Method: STANDARD PLATE) “active; positive”; (Test System: AMES SALMONELLA TYPHIMURIUM, Strain/Indicator: TA100(FR1), Metabolic Activation: NONE, Method: STANDARD PLATE) “inactive; negative”; (Test System: AMES SALMONELLA TYPHIMURIUM, Strain/Indicator: TA100(FR1), Metabolic Activation: RAT, LIVER, S-9, PHENOBARBITAL AND 3-METHYLCHOLANTHRENE, Method: STANDARD PLATE) “inactive; negative”; (Test System: AMES SALMONELLA TYPHIMURIUM, Strain/Indicator: TA100, Metabolic Activation: RAT, LIVER, S-9, AROCLOR 1254 OR PHENOBARBITOL, Method: STANDARD PLATE) “active; positive”; (Test System: AMES SALMONELLA TYPHIMURIUM, Strain/Indicator: TA100, Metabolic Activation: RAT, LIVER, S-9, PHENOBARBITAL AND 3-METHYLCHOLANTHRENE, Method: STANDARD PLATE) “inactive; negative”. In addition, the mutagenic call is “inactive; negative” under setting [2]; “inactive; negative” (Test System: AMES SALMONELLA TYPHIMURIUM, Strain/Indicator: TA1535, Metabolic Activation: RAT, LIVER, S-9, AROCLOR 1254 OR PHENOBARBITOL, Method: STANDARD PLATE); “inactive; negative” (Test System: AMES SALMONELLA TYPHIMURIUM, Strain/Indicator: TA1537, Metabolic Activation: NONE, Method: STANDARD PLATE); “inactive; negative” (Test System: AMES SALMONELLA TYPHIMURIUM, Strain/Indicator: TA1537, Metabolic Activation: RAT, LIVER, S-9, AROCLOR 1254 OR PHENOBARBITOL, Method: STANDARD PLATE); “inactive; negative” (Test System: AMES SALMONELLA TYPHIMURIUM, Strain/Indicator: TA1538, Metabolic Activation: NONE, Method: STANDARD PLATE); “inactive; negative” (Test System: AMES SALMONELLA TYPHIMURIUM, Strain/Indicator: TA1538, Metabolic Activation: RAT, LIVER, S-9, AROCLOR 1254 OR PHENOBARBITOL, Method: STANDARD PLATE). Further, the mutagenic call is “active; positive” (Test System: CHINESE HAMSTER V-79, Strain/Indicator: V-79/6-THIOGUANINE, Metabolic Activation: NONE); “active; positive” (Test System: CHINESE HAMSTER V-79, Strain/Indicator: V-79/6-THIOGUANINE, Metabolic Activation: RAT, LIVER, HEPATOCYTES); “active; positive” (Test System: CHINESE HAMSTER V-79, Strain/Indicator: V-79/OUABAIN, Metabolic Activation: NONE); “active; positive” (Test System: CHINESE HAMSTER V-79, Strain/Indicator: V-79/OUABAIN, Metabolic Activation: RAT, LIVER, HEPATOCYTES).

As to `CCCCCC(=O)O`, the mutagenic call reads like this: (Test System: AMES SALMONELLA TYPHIMURIUM, Strain/Indicator: TA97, Metabolic Activation: NONE, Method: PREINCUBATION) “inactive; negative”; (Test System: AMES SALMONELLA TYPHIMURIUM, Strain/Indicator: TA97, Metabolic Activation: RAT, LIVER, S-9, AROCLOR 1254, Method: PREINCUBATION) “inactive; negative”; (Test System: AMES SALMONELLA TYPHIMURIUM, Strain/Indicator: TA102, Metabolic Activation: NONE, Method: PREINCUBATION) “inactive; negative”; (Test System: AMES SALMONELLA TYPHIMURIUM, Strain/Indicator: TA102, Metabolic Activation: RAT, LIVER, S-9, AROCLOR 1254, Method: PREINCUBATION) “inactive; negative”.

Regarding `O=C1OCCN1N=Cc1ccc([N+](=O)[O-])o1`, the mutagenic call is “inactive; positive (p</=0.05 for mononuclei; p</=0.01 for binuclei for furazolidone alone;” (End Point: In vivo micronucleus, Test System: Bone marrow polychromatic erythrocytes, Species: Rat, Strain/Sex: Sprague-Dawley/Female, Route: Oral); “active; positive” (Test System: AMES SALMONELLA TYPHIMURIUM, Strain/Indicator: TA98(1,8-DNP6), Metabolic Activation: NONE, Method: STANDARD PLATE); “active; positive” (Test System: AMES SALMONELLA TYPHIMURIUM, Strain/Indicator: TA98(1,8-DNP6), Metabolic Activation: RAT, LIVER, S-9, 3-METHYLCHOLANTHRENE, Method: STANDARD PLATE); “active; positive” (Test System: AMES SALMONELLA TYPHIMURIUM, Strain/Indicator: TA98(NR), Metabolic Activation: NONE, Method: STANDARD PLATE); “active; positive” (Test System: AMES SALMONELLA TYPHIMURIUM, Strain/Indicator: TA98(NR), Metabolic Activation: RAT, LIVER, S-9, 3-METHYLCHOLANTHRENE, Method: STANDARD PLATE); “active; positive” (Test System: AMES SALMONELLA TYPHIMURIUM, Strain/Indicator: TA98, Metabolic Activation: NONE). Also, the mutagenic call was “active; positive” under setting [1]; “active; positive” (Test System: AMES SALMONELLA TYPHIMURIUM, Strain/Indicator: TA98, Metabolic Activation: RAT, LIVER, S-9, 3-METHYLCHOLANTHRENE, Method: STANDARD PLATE); “active; positive” (Test System: AMES SALMONELLA TYPHIMURIUM, Strain/Indicator: TA98, Metabolic Activation: S-9); “active; positive” (Test System: AMES SALMONELLA TYPHIMURIUM, Strain/Indicator: TA100, Metabolic Activation: NONE); “active; positive” (Test System: AMES SALMONELLA TYPHIMURIUM, Strain/Indicator: TA100, Metabolic Activation: S-9); “inactive; negative” (Test System: CHINESE HAMSTER OVARY, Strain/Indicator: CHO-AS52, Metabolic Activation: NONE). Also, the mutagenic call (Test System: CHINESE HAMSTER OVARY, Strain/Indicator: CHO-AS52, Metabolic Activation: RAT, LIVER, S-9, 3-METHYLCHOLANTHRENE) is “inactive; negative”; the mutagenic call (Test System: CHINESE HAMSTER OVARY, Strain/Indicator: CHO-K1-BH4, Metabolic Activation: NONE) is “active; positive”; the mutagenic call (Test System: CHINESE HAMSTER OVARY, Strain/Indicator: CHO-K1-BH4, Metabolic Activation: RAT, LIVER, S-9, 3-METHYLCHOLANTHRENE) was “active; positive”; the mutagenic call (Test System: CHINESE HAMSTER OVARY, Strain/Indicator: CHO-UV5, Metabolic Activation: NONE) was “active; positive”; the mutagenic call (Test System: CHINESE HAMSTER OVARY, Strain/Indicator: CHO-UV5, Metabolic Activation: RAT, LIVER, S-9, 3-METHYLCHOLANTHRENE) was “active; positive”; the mutagenic call (Test System: E. COLI, Strain/Indicator: TC3960, Metabolic Activation: NONE, Method: PREINCUBATION) is “active; positive”. The mutagenic call is, setting by setting: (Test System: E. COLI, Strain/Indicator: WP2, Metabolic Activation: NONE, Method: SPOT) “active; positive”; (Test System: E. COLI, Strain/Indicator: WP2 UVRA, Metabolic Activation: NONE, Method: SPOT) “active; positive”.

`CN(Cc1cccc(C#N)c1)N=O`: the mutagenic call runs as follows: (Test System: AMES SALMONELLA TYPHIMURIUM, Strain/Indicator: TA1535, Metabolic Activation: HAMSTER, LIVER, S-9, AROCLOR 1254, Method: STANDARD PLATE) “active; positive”; under setting [2], “active; positive”.

`Nc1nc(OCc2ccccc2)c2[nH]cnc2n1`: the mutagenic call is, setting by setting: (Test System: Mouse lymphoma, Strain/Indicator: L5178Y (tk+/tk-), Metabolic Activation: None, Method: Suspension/plate) “active; positive”; (Test System: Mouse lymphoma, Strain/Indicator: L5178Y (tk+/tk-), Metabolic Activation: Rat, Liver, S-9, Aroclor 1254, Method: Suspension/plate) “inconclusive”.
